In US12185726B2, “Method for efficiently collecting and purifying Orobanche cumana (O. cumana) germination stimulants using aeroponic system and solid-phase extraction (SPE)” (ZHEJIANG UNIVERSITY, priority 2019, dated 2025):

Tests used:
O. cumana = assay: Biological activities of the four O. cumana germination stimulants detected in stimulants collected under the aeroponic system (UHPLC-TQ-MS detection); set-up: species or system Orobanche cumana; conditions: collected sunflower root exudate stimulants
Excerpt: 7) The ultra-high performance liquid chromatograph-triple quadrupole mass spectrometry (UHPLC-TQ-MS) was adopted to separate and detect the components of obtained O. cumana germination stimulants. The O. cumana germination stimulants in sunflower root exudates were identified using ultra-high performance liquid chromatography-mass spectrometry (UHPLC-MS/MS), and analyzed using Micromass Quattro Premier XE tandem mass spectrometer (Waters, USA). The mass spectrometer was equipped with an electrospray ionization source (ESI) and combined with a UHPLC system. Chromatographic conditions: UHPLC C18 column (100 mm×2.1 mm, 1.7 μm), and mobile phase: water-methanol. Gradient elution process: 30% methanol for 1 min; 5 min of transition to 80% methanol, and holding at 80% methanol for 1 min; and 0.2 min of transition back to 30% methanol. The column was equilibrated in this solvent composition for 1.8 min before proceeding to the next run. Each run: 9 min; column temperature: 50° C.; flow rate: 0.4 mL/min; and injection volume: 30 μl. MS conditions: ESI, in positive ion scanning mode; gas flow rates of atomizer and desolventizing: 50|h^−1 and 800|h^−1, respectively; capillary voltage: 2.7 kV; extraction cone voltage: 20 V, source temperature: 120° C.; and desolventizing gas temperature: 450° C. 3.0×10^−3 mbar argon was used for collision to induce dissociation and fragmentation. The collision energy for each compound was optimized. Multiple response monitoring (MRM) scanning mode was adopted to search for O. cumana germination stimulants. Mass-to-charge ratio scan range data can be found in (Raupp & Spring 2013; Ueno et al. 2014). In this experiment, based on previous literature data, four types of O. cumana germination stimulants were selected for detection. Three are biologically-active sesquiterpenes isolated from O. cumana germination stimulants, namely, dehydrocostus lactone, costunolide, and 8-epixanthatin, and the remaining one is a non-sesquiterpene, namely, heliolactone.

O. cumana seeds = conditions: at nanomolar and micromolar concentrations; sunflower root exudates; cited from earlier work

Row | Compound | biological activity as O. cumana germination stimulant (O. cumana) | stimulation of the germination of O. cumana seeds (O. cumana seeds)
1 | C=C1C(=O)O[C@@H]2C[C@H](C)C(/C=C/C(C)=O)=CC[C@H]12 [8-epixanthatin] | high activities | can stimulate the germination
2 | C=C1C(=O)O[C@@H]2/C=C(\C)CC/C=C(\C)CC[C@@H]12 [costunolide] | high activities | can stimulate the germination
3 | C=C1CC[C@H]2C(=C)CC[C@H]3C(=C)C(=O)O[C@@H]3[C@@H]12 [dehydrocostus lactone] | high activities | –
4 | C=C1C(=O)O[C@@H]2C[C@H](C)C(CCC(C)=O)=CC[C@H]12 [tomentosin] | – | can stimulate the germination
5 | heliolactone | very low activity | –
